Experiments:
hNOD2 = molecular target: T1, hNOD2 (Homo sapiens, UniProt Q9HC29); assay: HEK-Blue NOD2 cell line reporter assay (NF-κB-inducible SEAP); format: cell-based; conditions: HEK-Blue NOD2 cells, 18 h, NF-κB transcriptional activity (SEAP); read-out: EC50 (nM), NOD2 agonistic activity
T1 construct: host or cells: HEK-Blue NOD2 cells (HEK293)
Outline: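 HEK293 cells cotransfected with hNOD2 and an NF-κB-inducible SEAP reporter, exposed to compounds dose-dependently for 18 h at 37 °C, 5% CO2. SEAP read by absorbance at 630 nm; EC50 values from dose-response, duplicate wells, at least two independent biological replicates.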

human PBMCs = assay: Cytokine release from peripheral blood mononuclear cells (LEGENDplex panel); format: cell-based; conditions: 18 h
From the text: The immunomodulatory effects of the selected desmuramylpeptides were examined in human primary peripheral blood mononuclear cells (PBMCs). This diverse mixture of immune cells provided a platform to investigate the effects of these NOD2 agonists within a physiologically relevant environment, encompassing other NOD2-interacting and downstream signaling proteins. […] Given that NOD2 activation often modulates the Toll-like receptor (TLR)-induced cytokine responses, we investigated the impact of combining desmuramylpeptides with lipopolysaccharide (LPS), a well-known TLR4 agonist, on cytokine secretion.[76]−[78]
The elicited cytokine profiles thus broadly reflect the structure–activity relationships obtained in the reporter gene assays.
Peripheral blood mononuclear cells were plated at a density of 1 × 10^6 cells/mL in 48-well plates containing 500 μL of growth medium. Cells were then treated with the compounds (2 μM) or the corresponding vehicle (0.1% DMSO), both in the absence and presence of LPS (10 ng/mL). Following an 18 h incubation period at 37 °C with 5% CO2, cell-free supernatants were collected and stored at −80 °C until analysis. […] Standard curves were constructed using recombinant cytokines provided in the kit. Data analysis was performed using Biolegend software Qognit and Prism (GraphPad, San Diego, CA, USA) software. The experiments were independently replicated four times. Statistical significance was determined using two-way analysis of variance (ANOVA) followed by Tukey’s multiple comparisons test.

K562 cancer cells = assay: PBMC cytotoxicity against K562 cancer cells (flow cytometry); format: cell-based; conditions: for Cytotoxicity (ratio to control) / enhancement of cytotoxicity of PBMCs against K562 cells (relative to negative control): alone: compounds 10 μM, LPS 1 μg/mL, IL-2 200 U/mL; for enhancement of cytotoxicity of PBMCs against K562 cells (relative to negative control): effector:target 40:1
Protocol: In this study, we investigated the potential of desmuramylpeptides, both alone and in combination with LPS, to enhance the cytotoxic activity of PBMCs against cancer cells employing a flow-cytometry-based cytotoxicity assay based on coincubation of preactivated PBMCs with fluorescently labeled K562 cancer cells.[82] Among the diverse subpopulations within PBMCs, natural killer (NK) cells play a pivotal role in detecting and eliminating cancer cells. NOD2-mediated NK cell activity against cancer cells arises from both direct NOD2 agonist elicited cytolytic activity of NK cells[83] and indirect activation through cytokine release by other NOD2-responsive cells, such as monocytes, which comprise approximately 10% of PBMCs; such interactions potentially reinforce the immune response.[84] […] To that end, we utilized the entire PBMC population as effector cells rather than isolated NK cells, to mimic conditions more closely resembling the in vivo environment while K562 chronic myelogenous leukemia cells were used as the target cells in a 40:1 effector to target cell ratio.[87]
(§1) The PBMC cytotoxicity assays utilizing K562 cells were conducted following previously established methods, with some adjustments.[82] […] Meanwhile, K562 cells were stained with CFSE (Invitrogen, Carlsbad, CA, USA), washed twice with complete medium, and then added (1 × 10^4 cells per well) to the pretreated PBMCs to achieve a final effector cell to target tumor cell ratio of 40:1. Following a 4-h coincubation period at 37 °C with 5% CO2, cells were stained with Sytox blue dead cell stain (Invitrogen) and analyzed using an Attune NxT flow cytometer (Thermo Fisher Scientific, Waltham, MA, USA) along with FlowJo software (Tree Star, Inc., Ashland, OR, USA). Cells positive for both CFSE and Sytox blue were designated as dead K562 cells. PBMCs alone and CFSE-labeled cancer cells alone were also exposed to the compounds at equivalent concentrations and stained with Sytox blue to assess any direct cytotoxic effects of the compounds on PBMCs and cancer cells separately. Each experiment was conducted in duplicate and repeated in three independent biological replicates. Statistical analysis was performed using one-way ANOVA followed by Dunnett’s multiple comparisons test.

PBMCs = assay: Direct cytotoxic effect of compounds on PBMCs (Sytox blue); format: cell-based
Protocol: Additionally, PBMCs and cancer cells alone were treated with desmuramylpeptides to assess any direct cytotoxic effects on these cells.
as §1

[1] = tested on: human blood monocyte subsets; assay: Monocyte conversion assay in PBMCs (CD14/CD16 flow cytometry); format: cell-based; conditions: 10 μM, 18 h, NT 19.5%
From the text: Engagement of NOD2 has been reported to increase the levels of an anti-inflammatory monocyte subset, denoted as patrolling monocytes (CD14^–, CD16^+2), thus exerting a counterintuitive role in inflammatory processes, while concomitantly increasing the levels of total blood monocytes (released from bone marrow).[18] […] This process involves a transition from the inflammatory monocytes, typified by CD14^+CD16^–, through an intermediate subset of CD14^+CD16^+ monocytes. […] To recapitulate this phenomenon, we modified the reported procedure and employed PBMCs in lieu of isolated monocytes. Identification of human blood monocyte subsets was achieved through flow cytometry, utilizing the expression of CD14 and CD16 markers as distinguishing criteria. […] Similar to what has been reported (e.g., inactivity of murabutide),[18] also in our case not all NOD2 agonists were equally endowed with the ability to generate patrolling monocytes.
The monocyte conversion assay was conducted following previously established methods, with some adjustments.[18] Peripheral blood mononuclear cells were plated at a density of 3 × 10^6 cells/mL in 24-well plates containing 700 μL of growth medium. Cells were then treated with MDP and desmuramylpeptides (10 μM) or the corresponding vehicle (0.1% DMSO). Following an incubation period at 37 °C with 5% CO2, cells were transferred to 1.5 mL tube using phosphate-buffered saline (PBS) and scraper. The cells were blocked with human TruStain Fcx (BioLegend) and stained using antihuman CD16 antibodies/Alexa Fluor 488 (BioLegend); antihuman CD14 antibodies/PE-Cy7 (BioLegend); antihuman HLA-DR antibodies/APC-Fire750 (BioLegend) and blocked with TrueStain Monocyte Blocker. A viability dye Helix NP Blue (BioLegend) was added to the previous panel to discriminate live cells. PBMC were analyzed using an Attune NxT flow cytometer (Thermo Fisher Scientific, Waltham, MA, USA) and the FlowJo software (Tree Star, Inc., Ashland, OR, USA). Initially, lymphocytes (CD14^–, CD16^–) and NK (CD16^–, HLA-DR^–) were eliminated, after which classical, intermediate and nonclassical monocytes were specifically identified by selective gating strategy as follows: CD14^+ CD16^– (classical), CD14^+ CD16^+ (intermediate) and CD14^– CD16^+ (nonclassical). Each experiment was conducted in duplicate and repeated in three independent biological replicates.

[2] = tested on: CD4+ T cells cocultured with BMDCs; assay: BMDC antigen presentation to ovalbumin-specific CD4+ T cells (OT II); format: cell-based, C57BL/6 mouse; conditions: BMDCs pretreated 10 μM + ovalbumin 50 μg/mL 18 h, coculture 72 h; OVA-treated cells 63.8%
Protocol: (§2) For this study, we narrowed down the selection of suitable desmuramylpeptides even further. In order to assess the adjuvant potential of selected desmuramylpeptides with regard to their effect on DC-mediated activation of CD4^+ and CD8^+ T cells, we conducted an ex vivo antigen-presentation assay utilizing C57BL/6 mouse bone marrow-derived DCs (BMDCs). Upon stimulation with desmuramylpeptides at 10 μM, in conjunction with ovalbumin soluble protein (50 μg/mL), BMDCs were cocultured with carboxyfluorescein succinimidyl ester (CFSE)-labeled naïve ovalbumin-specific CD4^+ or CD8^+ T cells, which were isolated from splenocytes of OT II and OT I transgenic mice, respectively. […] Additionally, we investigated how the priming of T cells elicited by the tested compounds impacted the cytokine profiles secreted in BMDC/T-cell cocultures.
(§3) CD4^+ and CD8^+ T cells were isolated from splenocytes of OT II and OT I transgenic mice using CD4^+ and CD8^+ T cell isolation kits (Miltenyi Biotec, Germany) following the manufacturer’s instructions. The purified T cells were labeled with CFSE (Invitrogen, Carlsbad, CA, USA) and subsequently washed. Next, 5 × 10^4 T cells were combined with 1 × 10^4 BMDCs/well (pretreated with desmuramylpeptides at 10 μM and 50 μg/mL ovalbumin [Invivogen, San Diego, CA, USA] for 18 h and then washed). Following a 72-h incubation period at 37 °C with 5% CO2, supernatants were harvested and stored at −80 °C for cytokine analysis. The cells were then stained with Fixable viability dye eFluor 780 (eBioscience, Thermo Fisher Scientific, MA, USA), anti-Thy1.2-PE-Cy7 antibodies (Biolegend, San Diego, CA, USA), anti-CD8-eFluor450 antibodies (eBioscience), anti-CD4-eFluor450 antibodies (eBioscience), and anti-CD25-APC antibodies (Biolegend) before analysis using a Beckman Coulter Cytoflex S flow cytometer (CA, USA) and FlowJo software (Tree Star, Inc., Ashland, OR, USA). Live Thy1.2+/CD4+ and Thy1.2+/CD8+ cells were assessed for CFSE dilution and CD25 expression. Each experiment was performed in duplicate and repeated in two independent biological replicates. Statistical significance was determined using paired t tests.

[3] = tested on: CD8+ T cells cocultured with BMDCs; assay: BMDC antigen cross-presentation to ovalbumin-specific CD8+ T cells (OT I); format: cell-based, C57BL/6 mouse; conditions: BMDCs pretreated 10 μM + ovalbumin 50 μg/mL 18 h, coculture 72 h; OVA-treated cells 23.3%
Protocol: as §2
as §3, with “Each experiment was performed in duplicate and repeated in two independent biological replicates.” left out

T1 sequence (Q9HC29 whole entry): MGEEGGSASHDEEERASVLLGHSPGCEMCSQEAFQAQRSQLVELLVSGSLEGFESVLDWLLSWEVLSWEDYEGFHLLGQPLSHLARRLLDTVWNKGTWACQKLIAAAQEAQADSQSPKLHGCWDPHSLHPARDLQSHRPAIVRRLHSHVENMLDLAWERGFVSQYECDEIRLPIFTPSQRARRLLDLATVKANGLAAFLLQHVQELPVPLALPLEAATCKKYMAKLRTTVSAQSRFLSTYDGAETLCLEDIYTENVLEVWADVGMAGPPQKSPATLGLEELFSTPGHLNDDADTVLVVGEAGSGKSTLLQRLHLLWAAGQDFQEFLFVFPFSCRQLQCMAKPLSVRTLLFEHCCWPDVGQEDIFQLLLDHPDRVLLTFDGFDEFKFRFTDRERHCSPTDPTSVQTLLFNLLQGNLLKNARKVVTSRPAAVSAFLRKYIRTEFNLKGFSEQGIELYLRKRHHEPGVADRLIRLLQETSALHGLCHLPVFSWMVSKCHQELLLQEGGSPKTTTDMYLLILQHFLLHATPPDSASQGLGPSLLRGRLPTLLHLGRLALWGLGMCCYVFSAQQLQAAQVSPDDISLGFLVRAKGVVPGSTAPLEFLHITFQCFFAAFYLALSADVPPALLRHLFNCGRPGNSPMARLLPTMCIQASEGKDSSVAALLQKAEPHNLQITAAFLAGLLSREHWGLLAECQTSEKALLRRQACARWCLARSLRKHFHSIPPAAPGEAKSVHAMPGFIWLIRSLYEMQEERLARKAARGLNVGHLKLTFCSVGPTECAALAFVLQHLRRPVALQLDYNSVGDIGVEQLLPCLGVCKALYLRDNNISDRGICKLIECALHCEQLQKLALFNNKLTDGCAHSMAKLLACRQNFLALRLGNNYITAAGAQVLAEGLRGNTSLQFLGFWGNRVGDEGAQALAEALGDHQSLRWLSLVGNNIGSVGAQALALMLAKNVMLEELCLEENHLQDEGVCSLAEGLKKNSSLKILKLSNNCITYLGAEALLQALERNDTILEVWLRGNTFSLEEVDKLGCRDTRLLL

`CC(=O)N[C@H]1C(O)O[C@H](CO)[C@@H](O)[C@@H]1O[C@H](C)C(=O)N[C@@H](C)C(=O)N[C@H](CCC(=O)O)C(N)=O` (mixture of isomers) [MDP, muramyl dipeptide, reference compound] was tested, and the EC50 (hNOD2) was 205 ± 64 nM, the “levels of LPS-induced IL-10” value (human PBMCs; 2 μM + LPS 10 ng/mL) was “amplified” and the “production of proinflammatory cytokines and chemokines including IL-6, IL-8 and MCP-1” value (human PBMCs; 2 μM alone (no LPS)) was “minor increases”. The “cytotoxicity of PBMCs against K562 cells, cotreatment with LPS (relative to negative control)” value (K562 cancer cells; 10 μM + LPS 1 μg/mL, 18 h, then 4 h coincubation, 40:1) was 2.71 fold, the “Cytotoxicity (ratio to control), + LPS” value (K562 cancer cells; Table S2, 10 μM + LPS 1 μg/mL) was 2.71 ± 0.16 and the “Cytotoxicity (ratio to control)” value (K562 cancer cells; Table S2) was 1.17 ± 0.07. For the same molecule, the “enhancement of cytotoxicity of PBMCs against K562 cells (relative to negative control)” value (K562 cancer cells; 18 h, then 4 h coincubation) was “no activity”, the “Percent of dead PBMCs” value (PBMCs; human, 18 h, 10 μM) was 1.11% ± 0.15% and the “Percent of dead PBMCs, + LPS” value (PBMCs; human, 18 h, 10 μM) was 7.95% ± 0.95%. For the same molecule, the “levels of nonclassical monocytes” value [1] was 31.5%.
With “lipopolysaccharide [LPS, reference compound]” the “Cytotoxicity (ratio to control)” value (K562 cancer cells; Table S2) was 1.8 ± 0.08, the “enhancement of cytotoxicity of PBMCs against K562 cells (relative to negative control)” value (K562 cancer cells; 18 h, then 4 h coincubation) was 1.80 fold and the “Percent of dead PBMCs” value (PBMCs; Table S2, alone: compounds 10 μM, LPS 1 μg/mL, IL-2 200 U/mL) was 4.16% ± 0.47. For the same molecule, the “fraction of activated and proliferating CD4+ T-cells (CD25+, CFSE low)” value [2] was 80.4% and the “fraction of activated and proliferating CD8+ T-cells (CD25+, CFSE low)” value [3] was 55.6%.

Reference: article PMC11472310, “Distinctive Immune Signatures Driven by Structural Alterations in Desmuramylpeptide NOD2 Agonists” (Journal of Medicinal Chemistry, 2024)
